Experimental data: the NIST ThermoML archive (doi:10.1016/j.jct.2004.02.001)
Values joined by “and” are separate entries in the source; they are usually repeats but may differ in a detail not shown here. Equal entries are not always repeated.

How the values were obtained:
[1] = for vapor or sublimation pressure: Calculated from knudsen effusion weight loss; for Triple point temperature: DTA
[2] = Molar enthalpy of transition or fusion; conditions: DSC

CCCCc1ccc(C(=O)O)cc1 [4-butylbenzoic acid]
[1], Crystal 1
Conditions | vapor or sublimation pressure
333.16 K | 0.000164 kPa and 0.000162 kPa
335.16 K | 0.000211 kPa and 0.000212 kPa
337.14 K | 0.000263 kPa and 0.000262 kPa and 0.000261 kPa
339.17 K | 0.000323 kPa and 0.000328 kPa and 0.00033 kPa
341.17 K | 0.000422 kPa and 0.00042 kPa and 0.000408 kPa
343.16 K | 0.00052 kPa and 0.000522 kPa
345.15 K | 0.000645 kPa and 0.000629 kPa and 0.000622 kPa
347.13 K | 0.000804 kPa and 0.000786 kPa and 0.00078 kPa
349.15 K | 0.000994 kPa and 0.000968 kPa and 0.000978 kPa

Conditions | Molar enthalpy of transition or fusion, Crystal 1 [kJ/mol] | Molar enthalpy of transition or fusion, Crystal 2 [kJ/mol] | Molar enthalpy of transition or fusion, Nematic liquid crystal [kJ/mol] | Triple point temperature, Crystal 1 [K] | Triple point temperature, Crystal 2 [K] | Triple point temperature, Nematic liquid crystal [K]
[1] | – | – | – | 374.6 | 309.64 | 387.98
[2] | 11.6 | 4.7 | 0.76 | – | – | –

CCc1ccc(C(=O)O)cc1 [4-ethylbenzoic acid]
[1], Crystal
Conditions | vapor or sublimation pressure
321.17 K | 0.000214 kPa and 0.000211 kPa
323.16 K | 0.000272 kPa and 0.000265 kPa and 0.000263 kPa
325.22 K | 0.000347 kPa and 0.000335 kPa
327.17 K | 0.000419 kPa and 0.000418 kPa and 0.000436 kPa
329.34 K | 0.00055 kPa and 0.000542 kPa and 0.000527 kPa
331.2 K | 0.000666 kPa and 0.000651 kPa and 0.000637 kPa
333.14 K | 0.000826 kPa and 0.000818 kPa and 0.000803 kPa
335.25 K | 0.00103 kPa and 0.00101 kPa and 0.001 kPa

Crystal
Conditions | Molar enthalpy of transition or fusion [kJ/mol] | Triple point temperature [K]
[1] | – | 385.2
[2] | 12.8 | –

CCCCCCCc1ccc(C(=O)O)cc1 [4-heptylbenzoic acid]
[1], Crystal 1
Conditions | vapor or sublimation pressure
353.16 K | 0.000119 kPa and 0.000121 kPa and 0.000116 kPa
355.19 K | 0.000149 kPa and 0.000151 kPa
357.19 K | 0.000191 kPa and 0.000193 kPa and 0.000189 kPa
359.18 K | 0.000239 kPa and 0.00024 kPa
361.17 K | 0.000312 kPa and 0.0003 kPa and 0.000304 kPa
363.2 K | 0.000392 kPa and 0.000381 kPa
365.18 K | 0.000484 kPa and 0.000482 kPa and 0.000475 kPa
367.14 K | 0.000608 kPa and 0.000602 kPa and 0.000595 kPa
369.2 K | 0.000771 kPa and 0.000764 kPa and 0.000751 kPa

Conditions | Molar enthalpy of transition or fusion, Crystal 1 [kJ/mol] | Molar enthalpy of transition or fusion, Crystal 2 [kJ/mol] | Molar enthalpy of transition or fusion, Nematic liquid crystal [kJ/mol] | Triple point temperature, Crystal 1 [K] | Triple point temperature, Crystal 2 [K] | Triple point temperature, Nematic liquid crystal [K]
[1] | – | – | – | 374.52 | 320.17 | 393.11
[2] | 14.3 | 7.4 | 1 | – | – | –

CCCCCCc1ccc(C(=O)O)cc1 [4-hexylbenzoic acid]
[1], Crystal 1
Conditions | vapor or sublimation pressure
347.08 K | 0.00015 kPa and 0.000151 kPa and 0.000146 kPa
349.19 K | 0.000193 kPa and 0.000191 kPa and 0.000189 kPa
351.19 K | 0.000245 kPa and 0.000243 kPa and 0.000232 kPa
353.14 K | 0.000298 kPa and 0.000293 kPa and 0.000304 kPa
355.25 K | 0.000391 kPa and 0.000388 kPa and 0.000381 kPa
357.16 K | 0.000485 kPa and 0.00047 kPa and 0.000468 kPa
359.27 K | 0.000619 kPa and 0.000614 kPa and 0.000605 kPa
361.35 K | 0.000768 kPa and 0.000764 kPa and 0.000736 kPa
363.14 K | 0.000951 kPa and 0.000946 kPa and 0.000919 kPa

Conditions | Molar enthalpy of transition or fusion, Crystal 1 [kJ/mol] | Molar enthalpy of transition or fusion, Crystal 3 [kJ/mol] | Triple point temperature, Crystal 1 [K] | Triple point temperature, Nematic liquid crystal [K]
[1] | – | – | 370.64 | 385.87
[2] | 0.95 | 12.9 | – | –

Cc1ccc(C(=O)O)cc1 [4-methylbenzoic acid]
[1], Crystal
Conditions | vapor or sublimation pressure
319.68 K | 0.000137 kPa and 0.000133 kPa
322.14 K | 0.000182 kPa and 0.000179 kPa and 0.000174 kPa
324.62 K | 0.000235 kPa and 0.00023 kPa
327.08 K | 0.000309 kPa and 0.000307 kPa and 0.000312 kPa
329.73 K | 0.000421 kPa and 0.000415 kPa and 0.000408 kPa
332.11 K | 0.000536 kPa and 0.000529 kPa and 0.000515 kPa
334.63 K | 0.00071 kPa and 0.000689 kPa and 0.000685 kPa
337.33 K | 0.00092 kPa and 0.000891 kPa

Crystal
Conditions | Molar enthalpy of transition or fusion [kJ/mol] | Triple point temperature [K]
[1] | – | 452.34
[2] | 22.5 | –

CCCCCCCCc1ccc(C(=O)O)cc1 [4-octylbenzoic acid]
[1]
Conditions | vapor or sublimation pressure
356.67 K, Crystal 2 | 8.5e-05 kPa and 8.6e-05 kPa
358.22 K, Crystal 2 | 0.000102 kPa and 0.000103 kPa
359.66 K, Crystal 2 | 0.000127 kPa and 0.000126 kPa
361.16 K, Crystal 2 | 0.00015 kPa and 0.000148 kPa
362.71 K, Crystal 2 | 0.000182 kPa and 0.000181 kPa
364.25 K, Crystal 2 | 0.000213 kPa and 0.000211 kPa
365.68 K, Crystal 2 | 0.000255 kPa and 0.000253 kPa
367.46 K, Crystal 1 | 0.000302 kPa and 0.000305 kPa
368.85 K, Crystal 1 | 0.000356 kPa and 0.000355 kPa
370.35 K, Crystal 1 | 0.000426 kPa and 0.000424 kPa
371.86 K, Crystal 1 | 0.000504 kPa and 0.000502 kPa

Conditions | Molar enthalpy of transition or fusion, Crystal 1 [kJ/mol] | Molar enthalpy of transition or fusion, Crystal 2 [kJ/mol] | Molar enthalpy of transition or fusion, Crystal 3 [kJ/mol] | Molar enthalpy of transition or fusion, Nematic liquid crystal [kJ/mol] | Triple point temperature, Crystal 1 [K] | Triple point temperature, Crystal 2 [K] | Triple point temperature, Crystal 3 [K] | Triple point temperature, Nematic liquid crystal [K]
[1] | – | – | – | – | 373.25 | 366.56 | 305.46 | 385.54
[2] | 14.3 | 0.47 | 5.4 | 1.2 | – | – | – | –

CCCCCc1ccc(C(=O)O)cc1 [4-pentylbenzoic acid]
[1], Crystal 1
Conditions | vapor or sublimation pressure
341.16 K | 0.000174 kPa and 0.000177 kPa and 0.000169 kPa
343.16 K | 0.000223 kPa and 0.000214 kPa
345.16 K | 0.000279 kPa and 0.000271 kPa
347.18 K | 0.000358 kPa and 0.000355 kPa and 0.000345 kPa
349.18 K | 0.000454 kPa and 0.000455 kPa and 0.000439 kPa
351.17 K | 0.000553 kPa and 0.000544 kPa and 0.000533 kPa
353.16 K | 0.000694 kPa and 0.000692 kPa and 0.000682 kPa
355.16 K | 0.000852 kPa and 0.000854 kPa and 0.000828 kPa
357.16 K | 0.00109 kPa and 0.00106 kPa

Conditions | Molar enthalpy of transition or fusion, [2] [kJ/mol] | Triple point temperature, [1] [K]
Crystal 1 | 11.4 | 362.45
Nematic liquid crystal | 1.1 | 399.3

CCCc1ccc(C(=O)O)cc1 [4-propylbenzoic acid]
[1], Crystal 1
Conditions | vapor or sublimation pressure
331.16 K | 0.000166 kPa and 0.000162 kPa and 0.000159 kPa
333.14 K | 0.000207 kPa
335.17 K | 0.000259 kPa and 0.000252 kPa and 0.000246 kPa
337.17 K | 0.000321 kPa and 0.000318 kPa
339.15 K | 0.000397 kPa
341.16 K | 0.000501 kPa and 0.000485 kPa
343.16 K | 0.00062 kPa
345.14 K | 0.000772 kPa and 0.000774 kPa and 0.000768 kPa
347.16 K | 0.000968 kPa and 0.000944 kPa

Conditions | Molar enthalpy of transition or fusion, [2] [kJ/mol] | Triple point temperature, [1] [K]
Crystal 1 | 19.7 | 415.41
Crystal 2 | 3.39 | 298.48
